The test deals with C3H10T½ cells. The class given is cell-based, murine.

The structures appear in SMILES notation.

The values that follow come from patent publication US7067251B2 (priority 2000, dated 2006).

As for `NC(=O)NO` [HU, hydroxyurea], the “Type X collagen synthesis” value is “induces type X collagen synthesis”.
